The numbers were not newly measured in patent publication US20220143046A1, “COMPOSITION AND METHODS FOR RECTAL DELIVERY OF 4-AAPA AND 5-ASA COMPOUNDS” (9 METERS BIOPHARMA, INC., priority 2019, published 2022), which cites them from elsewhere.

The conditions of this series: oral formulation; two Phase 1 clinical trials for mild to moderate ulcerative colitis.

Take `O=C(O)Cc1ccc(/N=N/c2ccc(O)c(C(=O)O)c2)cc1` [INN-108, 5-(4-carboxymethyl-phenylazo)-2-hydroxybenzoic acid]: the systemic absorption result is reported as “no evidence of systemic absorption”.
